In patent publication US8906425B2, “Stimulation of the synthesis of the activity of an isoform of lysyl oxidase-like LOXL for stimulating the formation of elastic fibers” (BASF Beauty Care Solutions France S.A.S., priority 2003, dated 2014):
Marks after values point to notes of the source that are not given here.

Assays:
elastin mRNA [1] = assay: Real time RT-PCR effectiveness study, elastin mRNA; type: cell-based, human; details: 24 hours, adult fibroblasts (donor)
Method: (§1) […] The culture was carried out e.g. in monolayer in 24-well plates, in a defined medium without serum. (Fibroblast Basal Medium). The cells are sown e.g. at 40,000 per cm^2. After the time of placing the actives in contact with the cells (24 hours), the media were removed and the cells were preserved e.g. by dry freezing at −80° C. after a rinsing with phosphate buffer at pH 7.4. At the end of experimentation, the content of mRNA of elastin, of LOXL and of actin is evaluated by an mRNA analysis technique, e.g. by real time RT-PCR. For this, the couples of primers enabling the amplification of specific fragments of these genes are those described above (Example 10).
(§2) After extraction e.g. with the aid of an extraction kit in 96-wells on silica columns and determination on a 96-well spectrophotometer at 260 nm, the RNAs are diluted e.g. to 5 ng/μl. The RT-PCR reactions (Reverse Polymerase Transcription Chain Reactions) were carried out by quantitative real time RT-PCR with the aid of the “Opticon” system (MJ Research). Advantageously, the reaction mixture (50 μl) introduced into the wells was the following, for each sample: • 10 μl of RNA at a concentration of 5 ng/μl, • The specific primers of the various labels sought after, • Reaction mixture (Qiagen 25 μl 2xQuantiTect SYBR Green RT-PCR master mix containing 5 mM MgCl2+0.5 μl QuantiTect RT mix), the label SYBR Green I inserting in the DNA double strands during the elongation step. […] Analysis and Method of Calculation: The incorporation of fluorescence in the amplified DNA was evaluated continuously during the PCR cycles. This system enabled obtaining curves of fluorescence measurement as a function of the number of PCR cycles and thus enabled evaluating a relative amount of amplified DNA. […] According to the experimentation, the threshold of measurement of the C (T) (=Cycle Threshold) was fixed for T between 0.05 and 0.01, and then an arbitrary measurement unit is calculated for each gene according to the formula: Sgene ? x ? =10^7×(½)^C(T)gene ? ^x ? […]

LOXL mRNA = assay: Real time RT-PCR effectiveness study, LOXL mRNA; type: cell-based, human; details: 24 hours, adult fibroblasts (donor)
Method: as §1, §2

LOX mRNA = assay: Real time RT-PCR effectiveness study, LOX mRNA; type: cell-based, human; details: active at 5%, 24 hours, adult fibroblasts (donor)
elastin (Eln) mRNA = assay: Screening of active principles by qualitative RT-PCR, elastin mRNA; type: cell-based, human; details: actives at 1% (v/v), 24 hours, adult abdomen fibroblasts (donor), mRNA vs actin and non-treated control
Method: (§3) The active principles were tested at 1% (v/v) on fibroblasts of normal human skin (originating from the foreskin of the infant or originating from the adult). The culture was carried out, e.g. in a monolayer on 24-well culture plates, in a defined medium without serum (Fibroblast Basal Medium). The cells were sown, e.g. at 40,000 per cm^2. At the confluence, the cells are placed in contact with the actives advantageously for 24 hours. In parallel, a non-treated control (medium alone) and three positive controls (TGF-β at 1 ng/ml, IL-1α at 50 pg/ml and Phytokine® (Coletica, Lyons, France) at 2% (v/v)) are advantageously carried out, e.g. on the same culture plate. The TGF-β at 1 ng/ml and the IL-1α at 50 pg/ml were tested beforehand and the stimulation of the synthesis of elastin mRNA induced by these two cytokines at these concentrations was verified by an analysis of the mRNAs, e.g. by quantitative RT-PCR (×10 for TGF-β and ×6 for IL-1 alpha). After the time of placing the actives in contact with the cells, e.g. 24 hours, the media are removed and the cells are preserved e.g. by dry freezing at −80° C. after a rinsing in phosphate buffer pH 7.4. The total RNAs are extracted e.g. with the aid of an extraction kit of 96 wells on silica columns and were determined on a 96-well spectrophotometer at 260 nm (purity indicator: protein determination at 280 nm). […]

elastin mRNA [2] = assay: Positive controls: stimulation of elastin mRNA synthesis by quantitative RT-PCR; type: cell-based; details: fibroblasts of normal human skin
Method: as §3

## CCCC(=O)OC [methyl butyrate]
Elastin mRNA [1]; active at 0.01%
  El Control multiplied by:: 0.92
Elastin mRNA [1]; active at 0.1%
  El Control multiplied by:: 0.96
Elastin mRNA [1]; active at 5%
  El Control multiplied by:: 1.70*
LOXL mRNA; active at 0.01%
  LOXL Control multiplied by:: 0.89
LOXL mRNA; active at 1%
  LOXL Control multiplied by:: 2.10*
LOXL mRNA; active at 5%
  LOXL Control multiplied by:: 0.91
LOX mRNA
  LOX Control multiplied by:: 0.91

## ethyl hexenoate
Elastin (Eln) mRNA
  Eln Control multiplied by:: 1.5

## TGF-β [reference compound]
Elastin mRNA [2]; TGF-β at 1 ng/ml
  stimulation of the synthesis of elastin mRNA (×): 10

B1: IL-1 alpha: cytokine used as positive control at 50 pg/ml (protein, UniProt P01583 113-271, looked up)
Interleukin-1 alpha: SAPFSFLSNVKYNFMRIIKYEFILNDALNQSIIRANDQYLTAAALHNLDEAVKFDMGAYKSSKDDAKITVILRISKTQLYVTAQDEDQPVLLKEMPEIPKTITGSETNLLFFWETHGTKNYFTSVAHPNLFIATKQDYWVCLAGGPPSITDFQILENQA
Elastin mRNA [2]; IL-1α at 50 pg/ml
  stimulation of the synthesis of elastin mRNA (×): 6
